The text below walks through data of patent EP4043466B1, “PRC2 INHIBITORS” (Mirati Therapeutics, Inc., priority 2018, dated 2019).

One test relates to Karpas 422 cells. The test can be described thus: Karpas 422 cell viability, CTG (Cell Titre Glo) assay. It is filed as cell-based, human. As to conditions: Homo sapiens; Inhibition of proliferation of Karpas 422 cells (EZH2 Y641N); viability measured Day 4, Day 7 or Day 11, time point of the tabulated values not stated. On the procedure:
Karpas 422 cell line is a human B cell non-Hodgkin's lymphoma cell line established from a patient having DLBCL. This EZH2 heterozygotic cell line expresses a mutant form of EZH2 enzyme (Y641N) that increases histone H3 methylation and this mutation has been implicated in the tumorgenesis of lymphomas, such as DLBCL.
Karpas 422 cells (PHE cat no., 06101702) were cultured in RPMI medium supplemented with 20% fetal bovine serum and 1% penicillin/1% streptomycin and plated at a density of 1000 cells/90 µl/well in 96 well white assay plates. A dose response curve for compounds of the present invention was determined by adding a 10µl aliquot of stock solutions of varying concentrations of compounds to the same medium in each well, over a concentration range of 10µM using 3-fold dilutions to a final concentration of 1.5nM. The plates were incubated at 37° C for predetermined time periods, Day 4, Day 7, or Day 11, and the viability of the cells was measured using a CTG assay kit (Cell Titre Glo; Promega cat.no G7573) on Day 4 and Day 7 in accordance with the manufacturer's instructions.
For the viability assay for the Day 11 plates, the plates were subjected to centrifugation at 1100 rpm for five minutes on Day 7 and the supernatant was removed by aspiration. The cells were resuspended in 90 µl aliquot of the appropriate growth medium lacking the compound followed by addition of 10 µl of a 10X stock of the same compound at the same concentration. The viability of the Day 11 cells was measured using the CTG assay kit described above in accordance with the manufacturer's instructions. The IC50 values for each compound at each predetermined time point were calculated using Graph pad PRISM software and the results are shown in Table 15. A = ≤250 nM; B = […] - ≤500 nM; and C = >500 nM.

Test [1] has as its target purified human, His-tagged PRC2 complex (Homo sapiens, UniProt O75530+Q15910). The test can be described thus: Hot Spot HMT assay: inhibition of PRC2 enzymatic activity (transfer of tritiated methyl from SAM to core histone, filter binding). In kind it is biochemical. As to conditions: Inhibition of PRC2-mediated enzymatic activity; 10 nM PRC2 complex, 0.05 mg/ml core histone H3, 1 uM 3H-SAM, 1 hr at 30°C. The source says: The assay uses purified human, His-tagged PRC2 complex, including N-terminal His-tagged EZH2 enzyme, N-terminal Flag-tagged embryonic ectoderm development protein (EED), N-terminal His-tagged suppressor of zeste 12 (SUZ12), N-terminal His-tagged AEBP2, and N-terminal His-tagged RbAp48. In this assay, the transfer of the tritiated methyl group from radiolabeled S-adenosyl methionine (SAM) to purified core histone protein by EZH2 is quantitated after filtration to determine the activity of the core PRC2 complex in the presence and absence of compound.
The initial starting concentration for the serial dilutions of each compound was 1.0 µM. […] SAH (S-(5-adenosyl)-L-homocysteine) was used as a positive control for assay validation.
An aliquot of each serial dilution of test compound was added to deep 384 well plate using Acoustic Technology instrument (Echo 550, LabCyte) containing reaction buffer (50 mM Tris-HCl (pH 8.)), 0.01% Brij35, 1 mM EDTA, 1 mM DTT, 1 mM PMSF and 1% DMSO), 10 nM purified PRC2 complex and 0.05 mg/ml core histone H3 in a 5 µl volume. The reaction was mixed gently and then pre-incubated for 20 min at 30°C. The enzymatic reaction was initiated by adding 1 uM S-Adenosyl-L-[methyl - ^3H]methionine and incubated for 1 hr at 30°C. After 1 hr, the reaction product was detected using a filter binding method and the amount of tritiated H3 core histone was quantitated using a scintillation counter.

Sequence of purified human, His-tagged PRC2 complex (Q15910 whole entry): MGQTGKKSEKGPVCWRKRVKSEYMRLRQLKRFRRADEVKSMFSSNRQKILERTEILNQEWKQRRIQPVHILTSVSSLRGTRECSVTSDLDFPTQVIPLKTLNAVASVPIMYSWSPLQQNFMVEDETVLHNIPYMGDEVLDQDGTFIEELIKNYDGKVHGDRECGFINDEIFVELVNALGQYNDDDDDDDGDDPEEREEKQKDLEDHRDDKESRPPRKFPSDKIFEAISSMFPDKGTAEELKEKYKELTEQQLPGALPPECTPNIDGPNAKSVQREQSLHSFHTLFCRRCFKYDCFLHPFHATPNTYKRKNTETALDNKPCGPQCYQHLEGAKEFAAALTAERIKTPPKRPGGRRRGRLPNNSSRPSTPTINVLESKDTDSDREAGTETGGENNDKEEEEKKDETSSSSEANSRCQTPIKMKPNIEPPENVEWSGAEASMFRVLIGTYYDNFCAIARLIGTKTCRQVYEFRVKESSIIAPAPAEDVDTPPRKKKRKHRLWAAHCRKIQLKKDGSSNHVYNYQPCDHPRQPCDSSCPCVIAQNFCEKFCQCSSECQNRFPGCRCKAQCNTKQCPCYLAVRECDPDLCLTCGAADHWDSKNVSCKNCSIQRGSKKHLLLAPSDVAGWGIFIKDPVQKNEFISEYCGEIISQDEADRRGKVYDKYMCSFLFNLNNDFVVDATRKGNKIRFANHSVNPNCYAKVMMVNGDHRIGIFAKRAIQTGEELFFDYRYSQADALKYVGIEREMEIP
Sequence of purified human, His-tagged PRC2 complex (O75530 whole entry): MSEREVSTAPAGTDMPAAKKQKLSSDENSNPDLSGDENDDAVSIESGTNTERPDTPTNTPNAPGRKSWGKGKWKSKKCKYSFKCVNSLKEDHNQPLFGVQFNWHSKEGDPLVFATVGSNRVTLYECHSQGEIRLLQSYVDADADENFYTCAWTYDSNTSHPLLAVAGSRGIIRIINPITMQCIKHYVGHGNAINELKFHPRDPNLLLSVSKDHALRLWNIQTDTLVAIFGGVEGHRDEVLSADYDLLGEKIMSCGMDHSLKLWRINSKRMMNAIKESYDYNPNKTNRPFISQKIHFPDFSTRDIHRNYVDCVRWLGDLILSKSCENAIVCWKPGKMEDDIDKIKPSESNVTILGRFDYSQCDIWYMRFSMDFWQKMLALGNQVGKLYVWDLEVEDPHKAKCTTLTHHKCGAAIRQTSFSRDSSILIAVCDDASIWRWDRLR
Sequence of purified human, His-tagged PRC2 complex (Q15022 whole entry partner): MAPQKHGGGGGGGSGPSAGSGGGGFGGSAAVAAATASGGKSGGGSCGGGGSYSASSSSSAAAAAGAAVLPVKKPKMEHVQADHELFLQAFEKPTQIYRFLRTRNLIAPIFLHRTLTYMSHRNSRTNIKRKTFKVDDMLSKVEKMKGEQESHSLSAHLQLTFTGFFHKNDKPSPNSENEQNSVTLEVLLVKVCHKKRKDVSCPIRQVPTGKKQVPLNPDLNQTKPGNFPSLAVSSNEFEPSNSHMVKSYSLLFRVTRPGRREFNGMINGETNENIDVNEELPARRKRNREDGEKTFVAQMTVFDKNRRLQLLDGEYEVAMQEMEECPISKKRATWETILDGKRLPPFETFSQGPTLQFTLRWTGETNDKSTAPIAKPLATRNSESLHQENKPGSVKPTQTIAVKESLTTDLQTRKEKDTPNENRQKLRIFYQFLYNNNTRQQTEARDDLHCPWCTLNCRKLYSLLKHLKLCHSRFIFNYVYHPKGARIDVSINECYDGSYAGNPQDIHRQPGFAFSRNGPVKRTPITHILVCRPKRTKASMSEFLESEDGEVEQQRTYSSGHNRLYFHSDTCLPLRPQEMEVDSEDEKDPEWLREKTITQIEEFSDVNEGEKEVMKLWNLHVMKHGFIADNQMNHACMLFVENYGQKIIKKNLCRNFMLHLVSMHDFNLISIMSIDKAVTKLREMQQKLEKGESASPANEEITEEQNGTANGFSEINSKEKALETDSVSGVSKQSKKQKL
Sequence of purified human, His-tagged PRC2 complex (Q6ZN18 whole entry partner): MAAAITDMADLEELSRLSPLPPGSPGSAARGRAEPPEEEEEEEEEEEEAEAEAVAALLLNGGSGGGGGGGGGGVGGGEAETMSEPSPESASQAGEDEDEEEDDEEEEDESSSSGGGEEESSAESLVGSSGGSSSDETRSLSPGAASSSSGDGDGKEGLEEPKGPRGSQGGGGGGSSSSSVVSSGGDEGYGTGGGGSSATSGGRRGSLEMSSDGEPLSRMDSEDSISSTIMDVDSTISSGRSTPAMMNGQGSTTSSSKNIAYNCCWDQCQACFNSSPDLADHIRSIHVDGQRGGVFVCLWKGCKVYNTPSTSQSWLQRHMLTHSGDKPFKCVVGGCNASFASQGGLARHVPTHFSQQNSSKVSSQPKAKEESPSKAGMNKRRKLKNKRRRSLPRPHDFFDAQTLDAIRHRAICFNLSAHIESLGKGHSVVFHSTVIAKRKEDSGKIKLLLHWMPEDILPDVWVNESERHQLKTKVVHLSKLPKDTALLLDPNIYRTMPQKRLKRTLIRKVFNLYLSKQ
Sequence of purified human, His-tagged PRC2 complex (Q09028 whole entry partner): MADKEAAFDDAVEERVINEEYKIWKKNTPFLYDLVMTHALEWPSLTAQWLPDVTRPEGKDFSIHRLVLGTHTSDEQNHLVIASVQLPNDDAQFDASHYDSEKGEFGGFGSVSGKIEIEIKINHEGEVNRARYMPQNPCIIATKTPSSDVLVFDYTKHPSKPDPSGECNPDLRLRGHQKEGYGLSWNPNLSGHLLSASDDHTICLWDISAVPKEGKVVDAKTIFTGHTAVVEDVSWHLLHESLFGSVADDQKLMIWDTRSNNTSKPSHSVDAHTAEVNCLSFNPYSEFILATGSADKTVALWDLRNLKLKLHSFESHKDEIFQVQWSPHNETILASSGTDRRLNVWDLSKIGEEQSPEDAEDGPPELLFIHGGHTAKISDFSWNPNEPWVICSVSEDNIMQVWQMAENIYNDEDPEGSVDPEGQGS

Take `N#Cc1cn2c(NCc3c(F)ccc4c3CCO4)ncc(-c3cccnn3)c2n1` [Example 142, 5-(((5-fluoro-2,3-dihydrobenzofuran-4-yl)methyl)amino)-8-(pyridazin-3-yl)imidazo[1,2-c]pyrimidine-2-carbonitrile]: the IC50 was not above 250 nM with Karpas 422 cells and less than 100 nM in test [1].
Regarding `Cc1cc(CN(C)C)c(F)cc1-c1cnc(NCc2c(F)ccc3c2CCO3)n2cc(C#N)nc12` [Example 84, 8-(4-((dimethylamino)methyl)-5-fluoro-2-methylphenyl)-5-(((5-fluoro-2,3-dihydrobenzofuran-4-yl)methyl)amino)imidazo[1,2-c]pyrimidine-2-carbonitrile], the IC50 in the test on Karpas 422 cells was not above 250 nM; in test [1], 100 to 500 nM.
As for `Cc1cc(C(=O)N(C)C)c(F)cc1-c1cnc(NCc2c(F)ccc3c2CCO3)n2cc(C#N)nc12` [Example 43, 4-(2-cyano-5-(((5-fluoro-2,3-dihydrobenzofuran-4-yl)methyl)amlno)lmldazo[1,2-c]pyrlmldln-8-yl)-2-fluoro-N,N,5-trimethylbenzamide], the 50% inhibitory concentration (IC50) is not above 250 nM with Karpas 422 cells and less than 100 nM in test [1].
Turning to `CN(C)Cc1c(F)cc(-c2cnc(NCc3c(F)ccc4c3CCO4)n3cc(C#N)nc23)cc1F` [Example 149, 8-(4-((dimethylamino)methyl)-3,5-difluorophenyl)-5-(((5-fluoro-2,3-dihydrobenzofuran-4-yl)methyl)amino)imidazo[1,2-c]pyrimidine-2-carbonitrile], the IC50 was not above 250 nM with Karpas 422 cells and 100 to 500 nM in test [1].
Turning to `Cc1cc(-c2cnc(NCc3c(F)ccc4c3CCO4)n3cc(C#N)nc23)cnn1` [Example 41, 5-(((5-fluoro-2,3-dihydrobenzofuran-4-yl)methyl)amino)-8-(6-methylpyridazin-4-yl)imidazo[1,2-c]pyrimidine-2-carbonitrile], the IC50 was not above 250 nM in the test on Karpas 422 cells and less than 100 nM in test [1].
Take `CN(C)Cc1ccc(-c2cnc(NCc3c(F)ccc4c3CCO4)n3cc(C#N)nc23)cc1` [Example 112, 8-(4-((dimethylamino)methyl)phenyl)-5-(((5-fluoro-2,3-dihydrobenzofuran-4-yl)methyl)amino)imidazo[1,2-c]pyrimidine-2-carbonitrile]: the IC50 in the test with Karpas 422 cells is not above 250 nM; in test [1] it was less than 100 nM.
Regarding `CC(C)(O)Cn1cc(-c2cnc(NCc3c(F)ccc4c3CCO4)n3cc(C#N)nc23)cn1` [Example 121, 5-(((5-fluoro-2,3-dihydrobenzofuran-4-yl)methyl)amino)-8-(1-(2-hydroxy-2-methylpropyl)-1H-pyrazol-4-yl)imidazo[1,2-c]pyrimidine-2-carbonitrile], the IC50 was 250 to 500 nM in the test on Karpas 422 cells and less than 100 nM in test [1].
As to `Cc1nc(N2CCN(C)CC2)ccc1-c1cnc(NCc2c(F)ccc3c2CCO3)n2cc(C(N)=O)nc12` [Example 138, 5-(((5-fluoro-2,3-dihydrobenzofuran-4-yl)methyl)amino)-8-(2-methyl-6-(4-methylpiperazin-1-yl)pyridin-3-yl)imidazo[1,2-c]pyrimidine-2-carboxamide], the IC50 with Karpas 422 cells was not above 250 nM; in test [1], less than 100 nM.
In the case of `Cc1nn(C)cc1-c1cnc(NCc2c(F)ccc3c2CCO3)n2cc(C#N)nc12` [Example 72, 8-(1,3-dimethyl-1H-pyrazol-4-yl)-5-(((5-fluoro-2,3-dihydrobenzofuran-4-yl)methyl)amino)imidazo[1,2-c]pyrimidine-2-carbonitrile], the IC50 in the test with Karpas 422 cells is more than 500 nM; in test [1] it was less than 100 nM.
As for `Cc1nc(N2CCN(C)CC2)ccc1-c1cnc(NCc2c(F)ccc3c2CCO3)n2cc(C#N)nc12` [Example 136, 5-(((5-fluoro-2,3-dihydrobenzofuran-4-yl)methyl)amino)-8-(2-methyl-6-(4-methylpiperazin-1-yl)pyridin-3-yl)imidazo[1,2-c]pyrimidine-2-carbonitrile], the 50% inhibitory concentration (IC50) in the test on Karpas 422 cells was not above 250 nM; in test [1], 100 to 500 nM.
As for `CNS(=O)(=O)c1ccc(-c2cnc(NCc3c(F)ccc4c3CCO4)n3cc(C#N)nc23)cc1` [Example 59, 4-(2-cyano-5-(((5-fluoro-2,3-dihydrobenzofuran-4-yl)methyl)amino)imidazo[1,2-c]pyrimidin-8-yl)-N-methylbenzenesulfonamide], the half-inhibitory concentration (IC50) in the test with Karpas 422 cells was 250 to 500 nM; in test [1] it was less than 100 nM.
In the same order, the values of `Cc1nn(C(C)C)cc1-c1cnc(NCc2c(F)ccc3c2CCO3)n2cc(C(N)=O)nc12` [Example 13, 5-(((5-fluoro-2,3-dihydrobenzofuran-4-yl)methyl)amino)-8-(1-isopropyl-3-methyl-1H-pyrazol-4-yl)imidazo[1,2-c]pyrimidine-2-carboxamide] are 250 to 500 nM and less than 100 nM.
On to `CN(C)Cc1ncc(-c2cnc(NCc3c(F)ccc4c3CCO4)n3cc(C#N)nc23)cc1F` [Example 40, 8-(6-((dimethylamino)methyl)-5-fluoropyridin-3-yl)-5-(((5-fluoro-2,3-dihydrobenzofuran-4-yl)methyl)amino)imidazo[1,2-c]pyrimidine-2-carbonitrile], for which the concentration for half-maximal inhibition (IC50) in the test on Karpas 422 cells was not above 250 nM; in test [1], less than 100 nM.
For `COc1ncc(-c2cnc(NCc3c(F)ccc4c3CCO4)n3cc(C#N)nc23)c(C)n1` [Example 88, 5-(((5-fluoro-2,3-dihydrobenzofuran-4-yl)methyl)amino)-8-(2-methoxy-4-methylpyrimidin-5-yl)imidazo[1,2-c]pyrimidine-2-carbonitrile], in that order: not above 250 nM and less than 100 nM.
For `Cc1ccncc1-c1cnc(NCc2c(F)ccc3c2CCO3)n2cc(C#N)nc12` [Example 98, 5-(((5-fluoro-2,3-dihydrobenzofuran-4-yl)methyl)amino)-8-(4-methylpyridin-3-yl)imidazo[1,2-c]pyrimidine-2-carbonitrile], the IC50 in the test with Karpas 422 cells was not above 250 nM; in test [1], less than 100 nM.
With `N#Cc1cn2c(NCc3c(F)ccc4c3CCO4)ncc(-c3cnn(CC(F)(F)F)c3)c2n1` [Example 108, 5-(((5-fluoro-2,3-dihydrobenzofuran-4-yl)methyl)amino)-8-(1-(2,2,2-trifluoroethyl)-1H-pyrazol-4-yl)imidazo[1,2-c]pyrimidine-2-carbonitrile], the 50% inhibitory concentration (IC50) in the test with Karpas 422 cells was not above 250 nM; in test [1], less than 100 nM.
In the case of `Cc1c(-c2cnc(NCc3c(F)ccc4c3CCO4)n3cc(C(N)=O)nc23)cnn1C(C)C` [Example 16, 5-(((5-fluoro-2,3-dihydrobenzofuran-4-yl)methyl)amino)-8-(1-isopropyl-5-methyl-1H-pyrazol-4-yl)imidazo[1,2-c]pyrimidine-2-carboxamide], the IC50 in the test on Karpas 422 cells was 250 to 500 nM; in test [1], less than 100 nM.
For `Cc1cc(C(=O)N(C)C)ccc1-c1cnc(NCc2c(F)ccc3c2CCO3)n2cc(C#N)nc12` [Example 44, 4-(2-cyano-5-(((5-fluoro-2,3-dihydrobenzofuran-4-yl)methyl)amlno)lmldazo[1,2-c]pyrlmldln-8-yl)-N,N,3-trimethylbenzamide], in that order: not above 250 nM and less than 100 nM.
As to `CC(C)Oc1ccc(-c2cnc(NCc3c(F)ccc4c3CCO4)n3cc(C#N)nc23)cn1` [Example 133, 5-(((5-fluoro-2,3-dihydrobenzofuran-4-yl)methyl)amino)-8-(6-isopropoxypyridin-3-yl)imidazo[1,2-c]pyrimidine-2-carbonitrile], the IC50 was more than 500 nM in the test with Karpas 422 cells and less than 100 nM in test [1].
